# Biological target: Acetylcholinesterase (Homo sapiens) (UniProt P22303)
# Test: Inhibition of AChE at 95 umol
# Chain of Acetylcholinesterase (Homo sapiens) (P22303 whole entry): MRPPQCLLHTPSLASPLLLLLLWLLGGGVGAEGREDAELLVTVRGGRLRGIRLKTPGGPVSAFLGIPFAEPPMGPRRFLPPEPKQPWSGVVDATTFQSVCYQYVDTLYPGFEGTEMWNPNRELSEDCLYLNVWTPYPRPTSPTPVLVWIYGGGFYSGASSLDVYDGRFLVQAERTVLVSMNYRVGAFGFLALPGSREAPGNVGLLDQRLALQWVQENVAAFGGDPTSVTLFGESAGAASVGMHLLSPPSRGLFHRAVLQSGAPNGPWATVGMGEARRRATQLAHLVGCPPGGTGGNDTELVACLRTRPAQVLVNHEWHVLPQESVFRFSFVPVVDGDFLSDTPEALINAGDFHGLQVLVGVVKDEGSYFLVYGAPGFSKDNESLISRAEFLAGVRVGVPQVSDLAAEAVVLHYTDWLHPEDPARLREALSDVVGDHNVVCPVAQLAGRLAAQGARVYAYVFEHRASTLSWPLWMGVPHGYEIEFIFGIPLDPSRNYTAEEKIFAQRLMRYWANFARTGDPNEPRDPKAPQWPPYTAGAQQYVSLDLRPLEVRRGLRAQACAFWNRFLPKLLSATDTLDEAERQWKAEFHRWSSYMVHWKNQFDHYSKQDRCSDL
compound,measurement,value
C[C@H]1CC(=O)N2CCCC3=C(C1)C(=O)O[C@H]3CCC2,inhibition,27%

# From ChEMBL document CHEMBL1150116, “Huperzine R, a novel 15-carbon Lycopodium alkaloid from Huperzia serrata” (J Nat Prod, 2002)
